Legend:
[1] = target: T1, monoamine oxidase B (MAO-B) (Homo sapiens, UniProt P27338); test: Amine oxidase activity assay (MAO-Glo), MAO-B; format: biochemical
T1 construct: purchased Sigma M7441
T1 sequence (P27338 1-520): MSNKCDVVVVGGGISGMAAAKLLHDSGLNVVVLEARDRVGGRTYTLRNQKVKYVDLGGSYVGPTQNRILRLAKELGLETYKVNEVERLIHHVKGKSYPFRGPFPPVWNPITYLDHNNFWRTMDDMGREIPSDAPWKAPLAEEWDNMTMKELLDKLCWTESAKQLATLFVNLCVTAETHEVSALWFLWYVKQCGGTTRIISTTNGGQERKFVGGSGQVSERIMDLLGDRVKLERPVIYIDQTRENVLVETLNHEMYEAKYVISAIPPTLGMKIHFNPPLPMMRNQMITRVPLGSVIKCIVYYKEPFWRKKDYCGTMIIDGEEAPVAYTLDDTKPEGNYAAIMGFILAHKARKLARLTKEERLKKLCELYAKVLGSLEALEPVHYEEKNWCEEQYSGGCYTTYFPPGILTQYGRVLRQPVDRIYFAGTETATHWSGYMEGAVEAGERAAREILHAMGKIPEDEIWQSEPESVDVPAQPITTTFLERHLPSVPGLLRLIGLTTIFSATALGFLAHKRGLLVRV
Description: The Promega MAO-Glo assay kit (V1402) was used to assess monoamine oxidase A (MAO-A) and monoamine oxidase B (MAO-B) activity. MAO substrate was prepared at 80 μM with the specific MAO-A/B reaction buffer. Overall, 0.5 μl test compound was added to 25 μl MAO substrate at 100, 30, 10, 3, 1, 0.3, 0.1, 0.03, 0.01 and 0.003 μM (final concentration) in a 96-well white, flat bottom plate. Overall, 25 μl of 1:520 dilution of MAO-A enzyme (Promega, V1452) or 25 μl of 1:52 dilution of MAO-B enzyme (Sigma, M7441) in specific MAO-A/B reaction buffer was added to each well (enzyme prepared at 2×final concentration) and plates were incubated for 1 h at room temperature. Finally, 50 μl per well luciferin detection reagent was added and plates were incubated for 20 min at room temperature, protected from light. Luminescence was measured with an integration time of 500 ms per well using a SpectaMax M5 plate reader and resulting IC50 values were calculated using GraphPad Prism software.
(§1) In another setting, the DAO and MAO assays were performed in 384-well plates (Greiner) and test compound was added using a Labcyte Echo™ Acoustic Handler for the same final concentrations as in the 96-well setting. Luminescence was measured with BMG LABTECH PHERAstar FS plate reader.

diamine oxidase (DAO) = target: T2, diamine oxidase (DAO) (Sus scrofa, UniProt Q9TRC7); test: Diamine oxidase catalytic activity assay (ROS Glo); format: biochemical
T2 construct: purchased Sigma
T2 sequence (Q9TRC7 25-755): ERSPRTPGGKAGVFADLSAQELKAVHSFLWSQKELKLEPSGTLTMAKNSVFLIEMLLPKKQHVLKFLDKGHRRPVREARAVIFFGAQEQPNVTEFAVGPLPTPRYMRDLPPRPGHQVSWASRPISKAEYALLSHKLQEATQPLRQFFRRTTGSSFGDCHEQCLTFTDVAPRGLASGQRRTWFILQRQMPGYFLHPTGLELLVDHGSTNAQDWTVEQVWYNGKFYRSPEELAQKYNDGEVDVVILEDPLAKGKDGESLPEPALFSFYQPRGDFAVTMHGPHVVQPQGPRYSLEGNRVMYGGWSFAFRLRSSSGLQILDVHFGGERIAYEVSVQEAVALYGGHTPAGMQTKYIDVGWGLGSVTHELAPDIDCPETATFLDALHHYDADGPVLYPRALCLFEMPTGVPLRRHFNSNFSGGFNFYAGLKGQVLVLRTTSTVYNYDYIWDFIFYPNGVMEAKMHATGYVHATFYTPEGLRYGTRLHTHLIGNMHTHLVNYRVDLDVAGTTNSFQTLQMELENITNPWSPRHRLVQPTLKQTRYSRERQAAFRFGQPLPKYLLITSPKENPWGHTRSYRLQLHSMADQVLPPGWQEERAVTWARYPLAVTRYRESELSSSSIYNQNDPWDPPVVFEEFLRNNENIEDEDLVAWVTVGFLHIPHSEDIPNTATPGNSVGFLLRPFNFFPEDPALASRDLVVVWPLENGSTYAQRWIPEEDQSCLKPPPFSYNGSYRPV
Description: The diamine oxidase (DAO) catalytic activity was determined using the Promega ROS Glo assay kit (G8821); DAO was purchased from Sigma and cadaverine dihydrochloride was used as the substrate at a concentration of 97.8 mM. The concentrations of the chemical inhibitors were the same as in the MAO assays. Luminescence was measured with an integration time of 500 ms/well using a SpectaMax M5 plate reader and resulting IC50 values were calculated using GraphPad Prism software.
as §1

LOX = target: T3, LOX (Sus scrofa, UniProt P45845); test: LOX isoform activity assay (ROS Glo), LOX; format: biochemical, pig; conditions: 1 h incubation with enzyme
T3 construct: LOX was extracted from pig skin by previously described methods; from tissue; host or cells: pig skin
T3 sequence (P45845 1-249): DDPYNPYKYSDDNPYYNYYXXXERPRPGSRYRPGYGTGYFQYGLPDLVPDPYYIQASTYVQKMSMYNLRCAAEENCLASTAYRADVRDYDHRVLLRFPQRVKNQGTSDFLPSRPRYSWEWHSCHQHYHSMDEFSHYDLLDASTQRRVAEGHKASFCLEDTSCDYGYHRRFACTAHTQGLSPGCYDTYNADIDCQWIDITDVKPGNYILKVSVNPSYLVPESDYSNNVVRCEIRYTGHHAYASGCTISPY
Summary of the method: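 Pig-skin LOX or recombinant LOXL3 preincubated 1 h with compound (100-0.003 μM final) in pH 9 CHES buffer containing 1 M urea. Then 19.56 mM cadaverine plus 25 μM H2O2 added, 1.5 h (LOX) or 1 h (LOXL3) at room temperature. ROS-Glo luminescence; IC50 from curve fit.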

| Compound | IC50 [1] [µM] | IC50 (diamine oxidase (DAO)) [µM] | IC50 (LOX) [µM] |
| --- | --- | --- | --- |
| CCOc1ccc(N2C[C@H]3CN(CCS(=O)(=O)CCN)C[C@@H]2C(C)(C)C3)cc1 [Example 1, 2-((2-((1R,5S)-6-(4-ethoxyphenyl)-9,9-dimethyl-3,6-diazabicyclo[3.2.2]nonan-3-yl)ethyl)sulfonyl)ethan-1-amine] | > 100 | > 100 | – |
| CCOc1ccc(N2C[C@@H]3C[C@H]2CN3CCS(=O)(=O)CCN)cc1 [Example 2, 2-((2-((1S,4S)-5-(4-ethoxyphenyl)-2,5-diazabicyclo[2.2.1]heptan-2-yl)ethyl)sulfonyl)-ethan-1-amine] | > 100 | > 100 | – |
| CCOc1ccc(N2CC3CN(CCS(=O)(=O)CCN)CC3C2)cc1 (stereo not shown) [Example 4, 2-((2-(5-(4-ethoxyphenyl)hexahydropyrolo [3,4-c]pyrrol-2(1H)-yl)ethyl)sulfonyl)ethan-1-amine] | > 100 | – | – |
| CCOc1ccc(N2C[C@H]3CN(C(=O)CS(=O)(=O)CCN)C[C@@H]2C(C)(C)C3)cc1 [Example 7, 2-((2-aminoethyl)sulfonyl)-1-((1S,5S)-6-(4-ethoxyphenyl)-9,9-dimethyl-3,6-diazabicyclo[3.2.2]nonan-3-yl)ethan-1-one] | > 100 | > 100 | – |
| CCOc1ccc(N2C[C@@H]3C[C@H]2CN3C(=O)CS(=O)(=O)CCN)cc1 [Example 8, 2-((2-aminoethyl)-sulfonyl)-1-((1S,4S)-5-(4-ethoxyphenyl)-2,5-diazabicyclo-[2.2.1]heptan-2-yl)-ethan-1-one] | > 100 | > 100 | – |
| Cc1ccc(S(=O)(=O)N2C[C@H]3CN(C(=O)CS(=O)(=O)CCN)C[C@H]3C2)cc1 [Example 11, 2-((2-aminoethyl)-sulfonyl)-1-(cis-5-tosylhexahydro-pyrrolo[3,4-c]pyrrol-2(1H)-yl)ethan-1-one] | > 100 | > 100 | – |
| CCOc1ccc(N2C[C@H]3CN(c4ccc(S(=O)(=O)CCN)cc4)C[C@@H]2C(C)(C)C3)cc1 [Example 33, 2-((4-((1R,5S)-6-(4-ethoxyphenyl)-9,9-dimethyl-3,6-diazabicyclo [3.2.2]nonan-3-yl)phenyl)sulfonyl)ethan-1-amine] | > 100 | – | – |
| CCOc1ccc(N2C[C@H]3CN(C(=O)NCCS(=O)(=O)CCN)C[C@@H]2C(C)(C)C3)cc1 [Example 38, (1S,5S)—N-(2-((2-aminoethyl)sulfonyl)ethyl)-6-(4-ethoxyphenyl)-9,9-dimethyl-3,6-diazabicyclo[3.2.2]nonane-3-carboxamide] | – | > 100 | 8.8 |

Other lines, results leading:

| IC50 [1] [µM] | IC50 (diamine oxidase (DAO)) [µM] | IC50 (LOX) [µM] | Compound |
| --- | --- | --- | --- |
| > 100 | > 100 | – | NCCS(=O)(=O)CC(=O)N1CCN(c2ncccn2)CC1 [Example 12, 2-((2-Aminoethyl)-sulfonyl)-1-(4-(pyrimidin-2-yl)-piperazin-1-yl)ethan-1-one] |
| > 100 | > 100 | 25 | NCCS(=O)(=O)CC(=O)N1CCN(c2ccccc2)CC1 [Example 13, 2-((2-Aminoethyl)-sulfonyl)-1-(4-phenylpiperazin-1-yl)ethan-1-one] |
| > 100 | > 100 | 41 | CCOC(=O)CCC(C(=O)N1C[C@@H]2C[C@H]1CN2c1ccc(OCC)cc1)S(=O)(=O)CCN (stereo partly drawn) [Example 41, ethyl 4-((2-aminoethyl)sulfonyl)-5-((1S,4S)-5-(4-ethoxyphenyl)-2,5-diazabicyclo[2.2.1]heptan-2-yl)-5-oxopentanoate] |
| > 100 | > 100 | > 100 | CCOc1ccc(N2C[C@@H]3C[C@H]2CN3C(=O)C2(S(=O)(=O)CCN)CC2)cc1 [Example 42, (1-((2-Aminoethyl)sulfonyl)cyclopropyl)((1S,4S)-5-(4-ethoxyphenyl)-2,5-diazabicyclo[2.2.1]heptan-2-yl)methanone] |

— patent US20220017516A1, “LOX INHIBITORS” (THE INSTITUTE OF CANCER RESEARCH: ROYAL CANCER HOSPITAL, priority 2018, published 2022)
